Literature values, collected in EP2042172A1, “Use of tocopherol derivatives as inhibitors of the notch signalling pathway” (Inserm, priority 2007, dated 2009).

System: axonal growth
Conditions: even in the presence of inhibitory signals (Hanbali et al., 2004); cited from earlier work

For `CC1=C(CCCCCCCCCCCCCCCO)C(C)(C)CCC1=O` [tCFA15], the “axonal growth in vitro” value is listed as “promote axonal growth in vitro”.
